In series [1] the test system is naso pharyngeal carcinoma with extension to a lymph node in the left neck. Put plainly: In vivo studies Example 2: patient, oral chlorin e4 sodium plus laser and LED light. Further details: species or system human. How it is done:
A patient with naso pharyngeal carcinoma with extension to a lymph node in the left neck, was treated successfully. The treatment consisted of three courses. For each course, five doses of 62.5-187.5 mg chlorin e4 sodium were administered orally over the course of eight days. 24-48 hours after each oral dose of chlorin e4 sodium, the patient was treated with laser and LED light having a wavelength of 660 nm and 760 nm.
Subsequently the patient was treated with a further course. Again, for the course, five doses of 62.5-187.5 mg chlorin e4 sodium were administered orally over the course of eight days. 24-48 hours after each oral dose of chlorin e4 sodium, the patient was treated with laser and LED light having a wavelength of 660 nm and 760 nm.

In series [2] the test system is lung cancer with metastases in the lymph nodes and sacrum bone. As to the kind of experiment: In vivo studies Example 11: patient, oral chlorin e4 sodium plus laser and LED light. Further details: species or system human. How it is done:
A patient with lung cancer with metastases in the lymph nodes and sacrum bone, was treated successfully. […] The treatment consisted of five courses. For each course, five doses of 62.5-187.5 mg chlorin e4 sodium were administered orally over the course of eight days. 24-48 hours after each oral dose of chlorin e4 sodium, the patient was treated with laser and LED light having a wavelength of 660 nm and 760 nm. Additionally, for two of the treatment courses, an interstitial light treatment using a fine needle was performed on the sacrum bone with an optical fibre laser having a wavelength of 660 nm and 760 nm. Additionally, mesothelium bone growth therapy was administered for the last two treatment courses.

Series [3] deals with advanced metastatic kidney disease with metastases in the gall bladder, liver and lung. Put plainly: In vivo studies Example 3: patient, oral chlorin e4 sodium plus laser and LED light. Further details: species or system human. How it is done: A patient with advanced metastatic kidney disease with metastases in the gall bladder, liver and lung, was treated successfully. The treatment consisted of three courses. For each course, five doses of 62.5-187.5 mg chlorin e4 sodium were administered orally over the course of eight days. 24-48 hours after each oral dose of chlorin e4 sodium, the patient was treated with laser and LED light having a wavelength of 660 nm and 760 nm.
Subsequently the patient was treated with a further two courses. Again, for each course, five doses of 62.5-187.5 mg chlorin e4 sodium were administered orally over the course of eight days. 24-48 hours after each oral dose of chlorin e4 sodium, the patient was treated with laser and LED light having a wavelength of 660 nm and 760 nm. Additionally an interstitial light treatment using a fine needle was performed on the liver and lung with an optical fibre laser having a wavelength of 660 nm and 760 nm.

Series [4] has as its system S180 sarcoma. As to the kind of experiment: Photodynamic therapy study with mice with subcutaneous S180 sarcoma. It counts as in vivo, Kunming mice. How it is done:
In this experiment the effects of photodynamic therapy mediated by three different photosensitizers, namely Duteroporphyrin, chlorin e4 sodium and 5-ALA, on mouse S180 sarcoma were observed. Duteroporphyrin and 5-ALA are porphyrin derivatives.
40 Kunming mice with well grown subcutaneous S180 sarcoma were randomly divided into four groups: (A) Duteroporphyrin group (10 mg/kg), (B) chlorin e4 sodium group (20 mg/kg), (C) 5-ALA group (100 mg/kg) and (D) blank control group. The mice in groups A and B were subjected to irradiation 8-10 hours after tail vein injection of the photo sensitizers, while the mice in group C were subjected to irradiation 3 hours after tail vein injection of the photosensitizer. A laser with a wavelength of 630 nm was used for groups A and C, while a duel-frequency laser with wavelengths of 660 nm and 760 nm was used for group B. The local tumour sites were irradiated vertically, with the diameter of the laser spots being 1.2-1.5 cm. The whole tumour and 3-5 mm of normal tissue around the tumour were covered by the laser. The lasers were applied to groups A, B and C for 20 minutes, with a power density of 150 mW/cm^2 and an energy density of 180 J/cm^2. The mice in control group D were not subjected to irradiation.

The test system of series [5] is advanced non-small cell lung cancer. As to the kind of experiment: Clinical study with patients suffering from advanced non-small cell lung cancer. It counts as in vivo, human. On the procedure: Through pathology or cytology diagnosis, 66 advanced non-small cell lung cancer patients were selected and randomly divided into two groups. Group A had 32 patients who were treated with chlorin e4 sodium. Group B had 34 patients who were treated with both chemotherapy and radiotherapy.
For group A, chlorin e4 sodium was administered at a dosage of 2 mg per kilogram of body weight, with two thirds administered by inhalation and one third administered orally. After the irradiation target(s) had been determined, an optical fibre for laser treatment purposes was guided into the lung tumor(s) via an interstitial procedure. Irradiation light intensity was 200 J/cm^2, irradiation power was 1,000 mW, and irradiation lasted for eight to ten minutes. Laser irradiation into the tumor was two to five centimeters in depth. Irradiation was either performed phase by phase (sub-paragraph treatment) based on tumor size or performed repeatedly.
For group B, for the radiotherapy, a 15 MV X-ray radiation therapy irradiation field covered primary lung tumor lesion(s) and mediastinal lymphatic drainage area, with a dosage of 65-70 Gy, administered on every first day in a week of radiotherapy. For the chemotherapy, 20 mg cisplatin was administered by intravenous application.

[6] abbreviates: 21 days after the treatments, P<0.05.
Setting [7] is: group A (32 patients): chlorin e4 sodium 2 mg/kg inhalation and oral + interstitial laser, group B (34 patients): cisplatin 20 mg iv + radiotherapy.

Experimental findings from patent US20150315202A1, “CHLORIN DERIVATIVE USEFUL IN PHOTODYNAMIC THERAPY AND DIAGNOSIS” (RMW CHO GROUP LIMITED, priority 2012, published 2015) are described below.

Regarding `C=Cc1c(C)c2cc3nc(c(C)c4[nH]c(cc5nc(cc1[nH]2)C(C)=C5CC)c(C)c4C(=O)O)[C@@H](CCC(=O)O)[C@@H]3C` [chlorin e4 sodium], the “Response (ultrasound images and biopsies)” value in series [1] (after the final (fourth) treatment course) is recorded as “complete response”. The “Biopsy of the treated lymph node of the neck” value in series [1] (immediately following three courses, confirmed ten months after treatment) is reported as “no cancer cells were detected”. In addition, the “Comparison of CT scans” value in series [1] (one month before and ten months after treatment) was “no spread of tumours and that the size of the tumours was reduced”. The Patient status entry in series [1] (two years and six months after starting, five months after completion of treatment) was “alive and well”. For the same molecule, the Patient status entry in series [2] (10 months after starting, four months after completion of treatment) was “alive and well”. Besides, in series [2] (five courses, interstitial light on sacrum bone, mesothelium bone growth therapy for last two courses), the “Response (PET/CT)” value is on record as “complete response”. The “Response (PET/CT)” value in series [3] (after a further two courses with interstitial light on liver and lung) is “good treatment response”. Moreover, the Metastasis entry in series [3] (after three courses) is recorded as “No further metastasis was observed”. The “Tumours throughout the body (PET/CT)” value in series [3] (before and two, three, five and 15 months after three courses) is “some tumours disappeared altogether and the remaining tumours reduced in size”. Also, in series [3] (five courses), the Side effects result is “no side effects”. In addition, in series [3] (life expectancy prior to treatment only six months), the Survival time result is “two years and four months”. Moreover, the “Pathological changes of tumour tissues (HE staining)” value in series [4] (24 hours after the treatment) is “a wide range of tumour necrosis, tumour vascular disruption and neutrophil infiltration”. Besides, in series [4] (24 hours after treatments), the “Living tumour cells versus control group D (FCM)” value is listed as “obviously fewer”; the “Proportions of apoptotic and necrotic tumour cells versus control group D (FCM)” value is given as “a lot higher”. Besides, in series [4] (setting [6]), the “Mean tumour volume versus control group D” value is on record as “statistically significantly smaller” and the “Mean tumour volume, group B versus group C (5-ALA)” value was “statistically significantly smaller in group B than group C”. Further, the “Tumour appearance after treatment (eschars)” value in series [4] (after treatments) was “Black eschars”. Further, the “Recovery of skins and fur” value in series [4] (mouse, in vivo) is given as “fully recovered”. For the same molecule, the “Sizes of tumours versus control group D” value in series [4] (six days after the treatments) is “no obvious difference”. Also, the “Therapeutic effect compared with 5-ALA” value in series [4] (summary of study, P<0.05) was “statistically significantly better therapeutic effect”. This molecule also gave a Tumour inhibition rate in series [4] (tail vein: Duteroporphyrin 10 mg/kg, chlorin e4 sodium 20 mg/kg, 5-ALA 100 mg/kg, laser 20 minutes, 180 J/cm^2) of 75.4%. Moreover, in series [5] (setting [7]), the “One year survival rate” value was determined as 93.75% and the “Two years survival rate” value turned out to be 68.75%. For the same molecule, in series [5] (group A: chlorin e4 sodium 2 mg/kg + interstitial laser, group B: cisplatin 20 mg iv + radiotherapy), the “Combined complete and partial remission rate” value is 56.20%.
